Test system: 3C system [HUVEC+(IL-1β, TNFα and IFNγ)]
Assay: BioMAP 3C system
Type: cell-based, Human
From the text: In this study LMW-DS was characterized by profiling in the BioMAP® Diversity PLUS panel. The BioMAP® panel consists of human primary cell-based systems designed to model different aspects of the human body in an in vitro format. The 12 systems in the BioMAP® Diversity PLUS panel (Table 32) allow test agent characterization in an unbiased way across a broad set of systems modeling various human disease states. The BioMA®P systems are constructed with one or more primary cell types from healthy human donors, with stimuli, such as cytokines or growth factors, added to capture relevant signaling networks that naturally occur in human tissue or pathological conditions. […]
Systems are derived from either single cell types or co-culture systems. […] Test agents prepared in either DMSO (small molecules; final concentration 0.1%) or PBS (biologics) are added at the indicated concentrations 1-hr before stimulation, and remain in culture for 24-hrs or as otherwise indicated (48-hrs, MyoF system; 72-hrs, BT system (soluble readouts); 168-hrs, BT system (secreted IgG)). […] Soluble factors from supernatants are quantified using either HTRF® detection, bead-based multiplex immunoassay or capture ELISA. Overt adverse effects of test agents on cell proliferation and viability (cytotoxicity) are detected by sulforhodamine B (SRB) staining, for adherent cells, and alamarBlue® reduction for cells in suspension. […]

low molecular weight dextran sulfate [LMW-DS]
Increased biomarker activity: IL-8

— patent US11534457B2, “Use of dextran sulfate” (priority 2017, dated 2022)
